Measurements taken from ChEMBL document CHEMBL3399939, “Synthetic studies of five-membered heteroaromatic derivatives as potassium-competitive acid blockers (P-CABs)” (Bioorg Med Chem Lett, 2015).

Tests used:
[1] = Inhibition of K+-stimulated H(+)/K(+) ATPase in porcine gastric mucosal microsomal fraction assessed as reduction in inorganic phosphate release incubated at 37 degC for 30 mins in presence of ATP by malachine green dye based colorimetry; format: microsomes, Sus scrofa, Gastric mucosa
[2] = Lipophilicity, log D of the compound; format: physicochemical; conditions: octanol/water
Sus scrofa = species: Sus scrofa; test: Inhibition of K+-stimulated H(+)/K(+) ATPase in porcine gastric mucosal microsomal fraction assessed as reduction in inorganic phosphate release at 10 uM incubated at 37 degC for 30 mins in presence of ATP by malachine green dye based colorimetry; format: microsomes; conditions: Gastric mucosa

SMILES | IC50 [1] | logD [2] | inhibition (Sus scrofa)
CNCc1cn(S(=O)(=O)c2ccc(C)cc2)c(-c2ccccc2)n1 | 99 nM | 0 | 
CNCc1cc(-c2ccccc2)c(S(=O)(=O)c2ccc(C)cc2)o1 |  |  | 33.2%
CNCc1cc(S(=O)(=O)c2ccccc2)c(-c2ccccc2)[nH]1 |  |  | 19.8%
CNCc1cc(S(=O)(=O)c2ccccc2)n(-c2ccccc2)c1 | 130 nM | 0.4 | 
CNCc1nc(-c2ccccc2)c(S(=O)(=O)c2ccccc2)s1 | 170 nM | 2.1 | 
CNCc1cc(S(=O)(=O)c2ccccc2)n(-c2ccccc2)n1 | 68 nM | 1.1 | 
CNCc1cc(S(=O)(=O)c2ccccc2)c(-c2ccccc2)s1 | 150 nM | 1.9 | 
CCNc1nc(-c2ccccc2)c(S(=O)(=O)c2ccccc2)s1 |  |  | 6.9%
CNCc1cc(S(=O)(=O)c2ccccc2)c(-c2ccccc2)o1 | 1000 nM | 1.8 | 
CNc1nc(-c2ccccc2)c(S(=O)(=O)c2ccccc2)s1 |  |  | 3.6%
CNCc1cc(-c2ccccc2)c(S(=O)(=O)c2ccccc2)s1 | 52 nM | 2.1 | 
CNCc1nc(S(=O)(=O)c2ccccc2)c(-c2ccccc2)s1 |  |  | 2%
